Experiments:
[1] = system: Human ESCs [SHEF3]; test: Flow cytometry of pluripotency surface markers Tra-1-60 and SSEA4 in treated human ESCs; type: cell-based
Description: (A) Images show typical colonies formed following the indicated treatments. The scale bars represent 1 mm. (B) Histogram plots of ESCs analysed by flow cytometry following immunostaining with antibodies against the pluripotency markers Tra-1-60 or SSEA4. (C) RNA was extracted from the cells and RT-PCR analyses performed using primers specific to the pluripotency genes OCT4 and NANOG and to the house-keeping gene β-ACTIN. (D) Western blot analysis was performed on protein extracted from the cells and immunoblotted with antibodies specific to Oct4. Blots were stripped and reprobed with anti-Gapdh antibodies to assess equal loading. […] SHEF3 cells were treated with the indicated concentration of 1O for 7 days. Images show typical colony morphology. (F) Histogram plots of ESCs analysed by flow cytometry following staining with Tra-1-60 and SSEA4 antibodies. Analysis of percent positive cells and mean fluorescent intensity are indicated on the plots. (G) RT PCR analysis for the expression of OCT4 and NANOG. Bands for each of the genes were from the same gel with intervening samples removed. (H) Western blot analysis of OCT4 protein expression. Proteins bands were from the same immunoblot with intervening samples removed.
(§1) SHEF1 and SHEF3 human ESCs were obtained from the UKSCB and cultured as outlined in their protocols. Briefly, ESCs were maintained on mitomycin C-inactivated mouse embryonic fibroblast (MEF) feeder layers in KnockOut Dulbecco's modified Eagle's medium (KO DMEM) (Invitrogen) supplemented with 20% (vol/vol) KO serum replacement (KOSR; Invitrogen), 1 mM non-essential amino acids (NEAA; Invitrogen), 1 mM glutamine (Invitrogen), 0.1 mM 2-mercaptoethanol (BioRad), penicillin/streptomycin, and 4 ng/ml recombinant human FGF2 (Peprotech). Cultures were passage using 1 mg/ml collagenase at a ratio of 1:8 to 1:12 every 7 days. Cultures were transferred to a feeder-free, chemically defined culture system on ESC-qualified Matrigel® (BD) coated plates in mTeSR1® (Stem Cell Technologies) media according to Stem Cell Technologies' protocol.
ESCs were trypsinised (0.05% Trypsin-EDTA) for 10 minutes at 37° C. and resuspended in PBS containing 2% (v/v) FBS (FBS/PBS). […] Cells were washed and stained with secondary fluorescein isothiocyanate (FITC)-conjugated antibodies (SIGMA) for a further 30 minutes, if required. Flow cytometry was performed using a FACSCanto cytometer (Becton Dickenson) and the data were analysed with FACSDiva software. Dead cells were excluded for analyses based on forward and side scatter parameters.

[2] = system: Human ESCs [SHEF3]; test: Differentiation towards definitive endoderm: immunostaining and RT-PCR of endodermal markers; type: cell-based; details: 2 μM, feeder-free on Matrigel in mTeSR1, up to 7 days
Description: Human ESCs [SHEF3] were maintained feeder-free on Matrigel® in chemically defined mTeSR1® media and treated with 2 μM 1M for the days indicated. (A) Expression of the endodermal markers FoxA2, Sox17 and HNF4α were analysed by immunofluorescence. Treatment with compound 1M led to expression of all markers after 7 days treatment. Scale bar represents 50 μm. (B) ESCs were harvested on day 7 following treatment with 1M for the indicated days. RNA was extracted and RT-PCR analyses performed using primers selective for the genes indicated. […] (C) BIO induces differentiation towards the DE. SHEF3 ESCs were treated with 2 μM BIO for the times indicated and immunostained with antibodies towards the endodermal markers FOXA2, SOX17 and HNF4α. (D) Compound 1L also induces differentiation towards the DE. SHEF1 ESCs were treated with 2 μM 1L for the times indicated and immunostained with antibodies towards the endodermal markers FOXA2 and HNF4α.
ESCs were cultured feeder-free on Matrigel®-coated plates in mTeSR1® media, supplemented with 2 μM compound 1M for 7 days with the media being refreshed every-other day. Definitive endoderm cultures were passaged with collagenase (1 mg/ml) and plated at a ratio of 1:10 on Matrigel® in KO DMEM supplemented with glutamine, penicillin/streptomycin, NEAA, 2% (v/v) KOSR, 10 ng/ml HGF (Peprotech) and 10 ng/ml FGF4 and cultured for a further 7 days with the media being refreshed every-other day. To allow for maturation of the HLCs, 10 ng/ml oncostatin M (Peprotech) and 10^−7 dexamethasone (SIGMA) were added to the above media and the cells were cultured for an additional 7 days with fresh media every-other day.
(§2) Total RNA was isolated and purified using TRIzol Reagent (Invitrogen), following the manufacturer's instructions. All RNA samples were treated with DNase I (Ambion) before cDNA synthesis to eliminate any contaminating genomic DNA. RNA (1 μg) was reverse transcribed into cDNA using Oligo(dT)15 (Promega) and SuperScript II (Invitrogen). Gene-specific PCR was carried out using primers and annealing temperatures outlined in Table 2.
ESCs were cultured on Matrigel®-coated lummox (Greiner Bio One) trays and fixed with 4% paraformaldehyde (PFA) for 20 minutes at room temperature. Cells were permeabilised in PBST (with 0.1% Triton X-100) and blocked in 10% blocking reagent (Roche) before incubating with primary antibodies in 2% blocking reagent overnight at 4° C. After washing in PBS, cells were incubated with FITC-conjugated secondary antibodies (Vector Labs) for 3 hours at room temperature. After further washing, the cells were stained with 4,6-diamidino-2-phenylindole (DAPI) (SIGMA), washed again and mounted in MOWIOL. […]

[3] = system: ESCs [SHEF1]; test: RT-PCR of Activin/Nodal pathway and differentiation marker genes; type: cell-based, human; details: 10 μM with 2 μM 1M
Description: (§3) (A) RNA was extracted from ESCs [SHEF1] cultured for 7 days in the presence of 2 μM 1M for the days indicated. RT-PCR analyses were performed using primers selective for the genes indicated. (B) ESCs [SHEF1] were treated with 2 μM 1M alone or in combination with 10 μM SB43125 (S) for the days indicated and RT-PCR performed on the extracted RNA. (C) ESCs [SHEF3] were treated with 1M alone or in combination with 100 ng/ml Activin A (A) for the days indicated and RT-PCR performed. (D). ESCs [SHEF1] were treated with 2 μM 1M, or 100 ng/ml ActivinA (A) alone or in combination with 1M for 5 days. Expression of the endoderm markers FoxA2 and HNF4α was analysed by immunofluorescence. The number of percent positive cells averaged from 3 fields of view +/−SD are indicated. Scale bar represents 50 μm. (E) ESCs [SHEF1] were treated with 2 μM 1M, or 100 ng/ml ActivinA (A) alone or in combination with 1M for 5 days. Expression of the DE marker CXCR4 was alaysed by flow cytometry.
as §2

[4] = system: Human ESCs [SHEF3]; test: Colony morphology, RT-PCR and Western blot of OCT4/NANOG in treated human ESCs; type: cell-based
Description: Human ESCs [SHEF3] were treated with the indicated concentrations of BIO or compound 1M or left untreated as a control and cultured for 7 days. (A) Images show typical colonies formed following the indicated treatments. The scale bars represent 1 mm. (B) Histogram plots of ESCs analysed by flow cytometry following immunostaining with antibodies against the pluripotency markers Tra-1-60 or SSEA4. (C) RNA was extracted from the cells and RT-PCR analyses performed using primers specific to the pluripotency genes OCT4 and NANOG and to the house-keeping gene β-ACTIN. (D) Western blot analysis was performed on protein extracted from the cells and immunoblotted with antibodies specific to Oct4. Blots were stripped and reprobed with anti-Gapdh antibodies to assess equal loading. (E) Compound 1O also induces differentiation of human ESCs. SHEF3 cells were treated with the indicated concentration of 1O for 7 days. Images show typical colony morphology. (F) Histogram plots of ESCs analysed by flow cytometry following staining with Tra-1-60 and SSEA4 antibodies. Analysis of percent positive cells and mean fluorescent intensity are indicated on the plots. (G) RT PCR analysis for the expression of OCT4 and NANOG. Bands for each of the genes were from the same gel with intervening samples removed. (H) Western blot analysis of OCT4 protein expression. Proteins bands were from the same immunoblot with intervening samples removed.
as §1, §2
Cell lysates (20 μg) were prepared, separated by SDS-PAGE and transferred to nitrocellulose as described previously (Welham et al., 1994). Immunoblotting was carried out using primary antibodies at the following dilutions: 1:5,000 anti-Oct4 (Santa Cruz Biotechnology; sc-9081); 1:2000 anti-GAPDH (sc-20357); 1:10,000 anti-phospho (Ser33/37/Thr41) β-catenin (Cell signalling Technology; CST 9561); 1:1000 anti-β-catenin (CST 9562). Anti-rabbit antibodies conjugated to horseradish peroxidise (DAKO) were used at 1:10,000 and blots were developed using ECL Advance (GE Healthcare) or ChemiGlow (Alpha Innotech) according to manufacturer's directions. Images were captured and analysed using the ImageQuant RT ECL system (GE Healthcare). Blots were stripped and reprobed as described previously (Welham et al., 1994).

[5] = system: ESCs [SHEF1]; test: Immunofluorescence of endoderm markers FoxA2 and HNF4α, percent positive cells; type: cell-based, human; details: 5 days
Description: as §3
ESCs were cultured on Matrigel®-coated lummox (Greiner Bio One) trays and fixed with 4% paraformaldehyde (PFA) for 20 minutes at room temperature. Cells were permeabilised in PBST (with 0.1% Triton X-100) and blocked in 10% blocking reagent (Roche) before incubating with primary antibodies in 2% blocking reagent overnight at 4° C. After washing in PBS, cells were incubated with FITC-conjugated secondary antibodies (Vector Labs) for 3 hours at room temperature. After further washing, the cells were stained with 4,6-diamidino-2-phenylindole (DAPI) (SIGMA), washed again and mounted in MOWIOL. The following antibodies and dilutions were used: goat-anti-FoxA2 (1:100, R&D. Systems), mouse anti-Sox17 (1:50, R&D Systems), rabbit anti-HNF4α (1:100, Santa Cruz), rabbit anti-AFP (1:100, DAKO), rabbit anti-TTR (1:100, DAKO). Images were captured on a Zeiss 510 Meta confocal microscope using a 40× objective.

[6] = system: ESCs [SHEF1]; test: Flow cytometry of the DE marker CXCR4; type: cell-based, human; details: 2 μM 1M, 100 ng/ml Activin A, alone or in combination, 5 days
Description: as §3
ESCs were trypsinised (0.05% Trypsin-EDTA) for 10 minutes at 37° C. and resuspended in PBS containing 2% (v/v) FBS (FBS/PBS). […] Flow cytometry was performed using a FACSCanto cytometer (Becton Dickenson) and the data were analysed with FACSDiva software. […]

[7] = system: ESCs; test: RT-PCR of Activin/Nodal pathway and differentiation marker genes; type: cell-based, human; details: 100 ng/ml Activin A with 1M, 7 days, SHEF3
Description: as §3, §2

[8] = MEF culture, concentration 0.5, 7 days
[9] = MEF culture, concentration 2, 7 days
[10] = mTeSR1, concentration 0.5, 7 days
[11] = mTeSR1, concentration 2, 7 days
[12] = 100 ng/ml Activin A with 2 μM 1M

O=C1Nc2cc(Br)ccc2/C1=C1/Nc2ccccc2/C1=N\O [BIO, reference compound]
Tra1-60 % pos ([1]; MEF culture, concentration 0.5 (unit not given), 7 days): 82.2%
SSEA4 % pos [1, 8]: 91.3%
SSEA4 mean (mean fluorescence intensity) [1, 8]: 6002
Tra1-60 mean (mean fluorescence intensity) [1, 8]: 9497
Tra1-60 % pos ([1]; MEF culture, concentration 2 (unit not given), 7 days): 75.1%
SSEA4 % pos [1, 9]: 83.3%
SSEA4 mean (mean fluorescence intensity) [1, 9]: 4006
Tra1-60 mean (mean fluorescence intensity) [1, 9]: 7441
Tra1-60 % pos ([1]; mTeSR1 (feeder-free, Matrigel), concentration 0.5, 7 days): 73.7%
Tra1-60 % pos ([1]; mTeSR1 (feeder-free, Matrigel), concentration 2, 7 days): 40.5%
SSEA4 % pos [1, 10]: 69.2%
SSEA4 mean (mean fluorescence intensity) [1, 10]: 5871
Tra1-60 mean (mean fluorescence intensity) [1, 10]: 8194
SSEA4 % pos [1, 11]: 72.5%
SSEA4 mean (mean fluorescence intensity) [1, 11]: 1410
Tra1-60 mean (mean fluorescence intensity) [1, 11]: 890
Differentiation towards the DE (immunostaining FOXA2, SOX17, HNF4α) [2]: induced differentiation towards the DE

O=C1NC(=O)C2=C1c1cn(c3ccccc13)CCOCCOCCOCCn1cc2c2ccccc21 [1L]
Differentiation towards the DE (immunostaining FOXA2, SOX17, HNF4α) [2]: induced differentiation towards the DE

NC(=O)c1ccc(-c2nc(-c3ccccn3)c(-c3ccc4c(c3)OCO4)[nH]2)cc1 [SB43125, reference compound]
Effect on 1M-induced GSC and FOXA2 expression [3]: dramatically reduced
Inhibition of 1M-induced NODAL expression [3]: only partially inhibited

O=C1NC(=O)C2=C1c1cn(c3ccccc13)CCCCC(O)CCCCn1cc2c2ccccc21 [1O]
Expression of pluripotency markers Tra-1-60 and SSEA4 by flow cytometry (in words) ([1]; 7 days treatment): decreased expression of Tra-1-60 and SSEA4
OCT4 and NANOG gene expression (RT-PCR) ([4]; 7 days treatment): loss of OCT4 and NANOG gene expression
Oct4 protein expression (Western blot) ([4]; 7 days treatment): loss of OCT4 protein expression
Proliferation and differentiation of human ESCs (colony morphology) ([4]; 7 days, on MEFs in KO DMEM or on Matrigel in mTeSR1, 1M at 2 μM): induced similar differentiation

B1: Activin A: member of the TGFβ superfamily which binds to the same receptors as Nodal, used to mimic Nodal activity in vitro (protein, UniProt P08476 311-426, looked up)
Inhibin beta A chain: GLECDGKVNICCKKQFFVSFKDIGWNDWIIAPSGYHANYCEGECPSHIAGTSGSSLSFHSTVINHYRMRGHSPFANLKSCCVPTKLRPMSMLYYDDGQNIIKKDIQNMIVEECGCS
modifications: Inhibin beta A chain homodimer
Effect of Activin A on generation of 1M-induced HNF4α expressing cells [5, 12]: inhibit generation of 1M-induced HNF4α expressing cells
Effect of addition of Activin A on 1M-induced FoxA2 expression [5, 12]: did not further enhance
FOXA2 expressing cells in the entire population ([5]; 2 μM 1M or 100 ng/ml Activin A): 8%
HNF4α-expressing cells ([5]; 2 μM 1M or 100 ng/ml Activin A): 3%
CXCR4 expression by flow cytometry [6]: 26.5%
1M-induced expression of AFP in the presence of Activin A [7]: lost

Reference: patent publication US8815590B2, “Composition and method for differentiation of human embryonic stem cells” (Stem Cells for Safer Medicines Limited, priority 2009, dated 2014)
